Patent US11634447B2 (priority 2012, dated 2023)

What follows are compounds tested on bacterial strain LF82 binding to the glycoprotein BSA-(Mannose)3 (assay: Bacterial Binding Assay (BBA)). Details: read-out: Bacterial Binding Assay IC50, LF82/Luciferase strain binding to BSA-(Man)3 coated plates, luminescence.
Type: cell-based, Escherichia coli
From the text: The purpose of the Bacterial Binding Assay (BBA) is to determine the inhibition activity of
selective FimH antagonists on the bacterial strain LF82 binding to the glycoprotein BSA-(Mannose)3.
Below is a list of the Materials used to run the BBA are described below. • 1. LB broth: Supplier: Gibco, #10855 • 2. D-PBS: Supplier: Wisent, #311-425-CL • 3. LB agar plates • 4. 96-well black plate (high binding): Supplier: Costar, #3925 • 5. TopSeal™-A adhesive sealing films; Supplier PerkinElmer, #6005185 • 6. Carbonate-bicarbonate buffer pH 9.6 tablets, Supplier: Medicago, #09-8922-24 • 7. Water, Supplier: Gibco, #15230-162 • 8. Bovine serum albumin (BSA): Supplier: Sigma, #A-7888 • 9. (Man)3-BSA (α1-3, α1-6 Mannotriose-BSA, 1 mg), V-Labs, #NGP1336, lot #HGDX37-169-1 • 10. Tween 20: Supplier: Sigma, #P9416 • 11. Bright-Glo Luciferase Assay System: Supplier: Promega, #E2610 • 12. LF82/Luciferase strain: Invasive ability of an Escherichia coli strain isolated from the ileal mucosa of a patient with Crohn ? disease. Boudeau J, Glasser A L, Masseret E, Joly B, Darfeuille-Michaud A, Infect Immun. 1999, 67(9), 4499-509
Solutions and buffers used to run the BBA are described below. • 1. 0.04M carbonate-bicarbonate buffer (coating buffer) • 2. 40 μg/mL BSA-(Man)3: Dissolve 1 mg of (Man)3-BSA in 25 mL of water. • 3. 4000 μg/mL BSA • 4. 40 μg/mL BSA • 5. 1 μg/mL BSA-(Man)3: 150 μL of 40 μg/mL BSA-(Man)3+5.85 mL of 40 μg/mL BSA • 6. 0.5 μg/mL BSA-(Man)3 in 0.02M carbonate-bicarbonate buffer. • 7. 20 μg/mL BSA in 0.02M carbonate-bicarbonate buffer • 8. Blocking buffer (2% BSA/DPBS): 1 g of BSA in 50 mL D-PBS • 9. 2× binding buffer (0.2% BSA/D-PBS): 5 mL of blocking buffer+45 mL D-PBS. • 10. Washing buffer (D-PBS/0.01% Tween 20): 10 μL of Tween 20 in 100 mL D-PBS. • 11. 1× Bright-Glo Luciferase substrate: Dilute 1:1 the Bright-Glo Luciferase Assay System with D-PBS The experimental protocol to run the BBA is described below.
Overnight culture of LF82/Luciferase strain: Into two Falcon 50 mL tubes, add 20 mL of LB+20 μL of 50 mg/mL Kanamycin and inoculate with a loop from glycerol stock of the LF82/Luciferase strain. Incubate overnight at 37° C. with no shaking.
Glycoprotein coating of 96-well plates: Add 100 μL/well of 0.5-2 μg/mL BSA-(Man)3. 20 μg/mL BSA is used as the control background. Seal plate using an adhesive sealing film and incubate overnight at room temperature. Wash the 96-well plate three times with 150 μL/well of D-PBS, add 170 μL/well of blocking solution and incubate 45 min (minimum) at room temperature.
Preparation of bacterial suspension: Mix the two cultures tubes (40 mL) and perform a 1:10 dilution in LB (900 μl LB+100 μl culture. Measure optical density (OD) of the bacterial cultures. OD1 ˜5×10^8 cells/mL. Centrifuge LF82 culture for 20 min at 3500 rpm at room temperature. Re-suspend bacterial pellet in D-PBS and centrifuge again for 20 min at 3500 rpm. Re-suspend bacterial pellet in D-PBS to obtain a bacterial concentration of 2×10^9 bacteria/mL. Dilute 1/10 in D-PBS to obtain a final bacterial concentration of 2×10^8 bacteria/mL (=107 bacteria/50 μL). Perform 1/10 serial dilutions in LB of each bacterial suspension, plate 10 μL of dilutions on LB agar plates (final dilutions of 10^−7) and incubate overnight at 37° C. and count CFUs to determine the actual bacteria density in the assay.
Bacterial binding assay: Add 147 μL 2× binding buffer to compound plate (containing 3 μL of compound). After blocking step is performed (at least 45 min), wash plates three times with 200 μL/well of D-PBS. With a 100 μL multichannel manual pipettor, add 50 µL/well of compound diluted in 2× binding buffer. With a 100 μL multichannel manual pipettor, add 50 μL/well of bacterial suspension. Agitate at slow speed for 1 min and incubate 40-75 min at room temperature. Wash 5 times with 150 μL/well of washing buffer and then once with D-PBS. Add 100 μL/well of 1× Bright-Glo Luciferase substrate. […]
`OC[C@H]1O[C@H](C#Cc2ccc(C#C[C@H]3O[C@H](CO)[C@@H](O)[C@H](O)C3O)cc2)[C@@H](O)[C@@H](O)[C@@H]1O` (stereo in doubt) [Compound 69, (2R,3 S,4R,5R,6R)-2-(hydroxymethyl)-6-[2-[4-[2-[(2R,3 S,4R,5 S,6R)-3,4,5-trihydroxy-6-(hydroxymethyl)tetrahydropyran-2-yl]ethynyl]phenyl]ethynyl]tetrahydropyran-3,4,5-triol] showed an IC50 of 66 nM. For `OC[C@H]1O[C@H](c2ccc(-c3ccc([C@H]4O[C@H](CO)[C@@H](O)[C@H](O)[C@@H]4O)cc3F)cc2)[C@@H](O)[C@@H](O)[C@@H]1O` [Compound 62], the IC50 was 67 nM. Compound `Cc1cc([C@H]2O[C@H](CO)[C@@H](O)[C@H](O)[C@@H]2O)ccc1-c1ccc([C@H]2O[C@H](CO)[C@@H](O)[C@H](O)[C@@H]2O)cc1` [Compound 63] has an IC50 of 112 nM. Work on `Cc1cc(-c2ccc([C@H]3O[C@H](CO)[C@@H](O)[C@H](O)[C@@H]3O)cc2)ccc1[C@H]1O[C@H](CO)[C@@H](O)[C@H](O)[C@@H]1O` [Compound 64] yielded an IC50 of 15 nM. For `OC[C@H]1O[C@H](c2ccc(-c3ccc(-c4ccc([C@H]5O[C@H](CO)[C@@H](O)[C@H](O)[C@@H]5O)cc4)cc3)cc2)[C@@H](O)[C@@H](O)[C@@H]1O` [Compound 65], the IC50 was 55 nM. In the case of `OC[C@H]1O[C@H](c2ccc(-c3cccc(-c4ccc([C@H]5O[C@H](CO)[C@@H](O)[C@H](O)[C@@H]5O)cc4)c3)cc2)[C@@H](O)[C@@H](O)[C@@H]1O` [Compound 66], the IC50 is reported as 34 nM. `COc1cc([C@H]2O[C@H](CO)[C@@H](O)[C@H](O)[C@@H]2O)ccc1-c1ccc([C@H]2O[C@H](CO)[C@@H](O)[C@H](O)[C@@H]2O)cc1` [Compound 67] showed an IC50 of 40 nM. With `Cc1cc(-c2ccc([C@H]3O[C@H](CO)[C@@H](O)[C@H](O)[C@@H]3O)c(C)c2)ccc1[C@H]1O[C@H](CO)[C@@H](O)[C@H](O)[C@@H]1O` [Compound 68] the IC50 was 7.7 nM. With `CC(C)(C#N)c1cc(C#C[C@H]2O[C@H](CO)[C@@H](O)[C@H](O)[C@@H]2O)ccc1C#C[C@H]1O[C@H](CO)[C@@H](O)[C@H](O)[C@@H]1O` [Compound 70] the IC50 was 15 nM. `COc1cc(C#C[C@H]2O[C@H](CO)[C@@H](O)[C@H](O)[C@@H]2O)ccc1C#C[C@H]1O[C@H](CO)[C@@H](O)[C@H](O)[C@@H]1O` [Compound 71] showed an IC50 of 28 nM. With `CCCCc1cc(C#C[C@H]2O[C@H](CO)[C@@H](O)[C@H](O)[C@@H]2O)ccc1C#C[C@H]1O[C@H](CO)[C@@H](O)[C@H](O)[C@@H]1O` [Compound 72] the IC50 was 18 nM. With `CCc1cc(C#C[C@H]2O[C@H](CO)[C@@H](O)[C@H](O)[C@@H]2O)cc(CC)c1C#C[C@H]1O[C@H](CO)[C@@H](O)[C@H](O)[C@@H]1O` [Compound 73] the IC50 was 21 nM. `COCCc1cc(C#C[C@H]2O[C@H](CO)[C@@H](O)[C@H](O)[C@@H]2O)ccc1C#C[C@H]1O[C@H](CO)[C@@H](O)[C@H](O)[C@@H]1O` [Compound 74] gave an IC50 of 8.1 nM. Compound `OC[C@H]1O[C@H](C#Cc2ccc(C#C[C@H]3O[C@H](CO)[C@@H](O)[C@H](O)[C@@H]3O)c(Cl)c2Cl)[C@@H](O)[C@@H](O)[C@@H]1O` [Compound 75] has an IC50 of 76 nM. Compound `CC(C)c1cc(C#C[C@H]2O[C@H](CO)[C@@H](O)[C@H](O)[C@@H]2O)c(C(C)C)cc1C#C[C@H]1O[C@H](CO)[C@@H](O)[C@H](O)[C@@H]1O` [Compound 76] has an IC50 of 46 nM. Work on `OC[C@H]1O[C@H](C#Cc2ccc(C#C[C@H]3O[C@H](CO)[C@@H](O)[C@H](O)[C@@H]3O)c(-c3ccccc3)c2)[C@@H](O)[C@@H](O)[C@@H]1O` [Compound 77, (2R,3S,4R,5S,6R)-2-(hydroxymethyl)-6-[2-[3-phenyl-4-[2-[(2R,3S,4R,5S,6R)-3,4,5-trihydroxy-6-(hydroxymethyl)tetrahydropyran-2-yl]ethynyl]phenyl]ethynyl]tetrahydropyran-3,4,5-triol] yielded an IC50 of 4 nM. `OC[C@H]1O[C@H](C#Cc2ccc(C#C[C@H]3O[C@H](CO)[C@@H](O)[C@H](O)[C@@H]3O)c(F)c2F)[C@@H](O)[C@@H](O)[C@@H]1O` [Compound 78, (2R,3S,4R,5S,6R)-2-[2-[2,3-difluoro-4-[2-[(2R,3S,4R,5S,6R)-3,4,5-trihydroxy-6-(hydroxymethyl)tetrahydropyran-2-yl]ethynyl]phenyl]ethynyl]-6-(hydroxymethyl)tetrahydropyran-3,4,5-triol] gave an IC50 of 63 nM. In the case of `COCc1cc(C#C[C@H]2O[C@H](CO)[C@@H](O)[C@H](O)[C@@H]2O)ccc1C#C[C@H]1O[C@H](CO)[C@@H](O)[C@H](O)[C@@H]1O` [Compound 79, (2R,3S,4R,5S,6R)-2-(hydroxymethyl)-6-[2-[3-(methoxymethyl)-4-[2-[(2R,3S,4R,5S,6R)-3,4,5-trihydroxy-6-(hydroxymethyl)tetrahydropyran-2-yl]ethynyl]phenyl]ethynyl]tetrahydropyran-3,4,5-triol], the IC50 is reported as 37 nM. `OC[C@H]1O[C@H](C#Cc2ccc(C#C[C@H]3O[C@H](CO)[C@@H](O)[C@H](O)[C@@H]3O)c(OCc3ccccc3)c2)[C@@H](O)[C@@H](O)[C@@H]1O` [Compound 80, (2R,3S,4R,5S,6R)-2-[2-[3-benzyloxy-4-[2-[(2R,3S,4R,5S,6R)-3,4,5-trihydroxy-6-(hydroxymethyl)tetrahydropyran-2-yl]ethynyl]phenyl]ethynyl]-6-(hydroxymethyl)tetrahydropyran-3,4,5-triol] was tested, and the IC50 was 11 nM. `OC[C@H]1O[C@H](C#Cc2cc(-c3ccccc3)c(C#C[C@H]3O[C@H](CO)[C@@H](O)[C@H](O)[C@@H]3O)cc2-c2ccccc2)[C@@H](O)[C@@H](O)[C@@H]1O` [Compound 81, (2R,3S,4R,5S,6R)-2-[2-[2,5-dipheny1-4[2-[(2R,3S,4R,5S,6R)-3,4,5-trihydroxy-6-(hydroxymethyl)tetrahydropyran-2-yl]ethynyl]phenyl]ethynyl]-6-(hydroxymethyl)tetrahydropyran-3,4,5-triol] gave an IC50 of 9 nM. `CCCCCCc1cc(C#C[C@H]2O[C@H](CO)[C@@H](O)[C@H](O)[C@@H]2O)c(CCCCCC)cc1C#C[C@H]1O[C@H](CO)[C@@H](O)[C@H](O)[C@@H]1O` [Compound 82, (2R,3S,4R,5S,6R)-2-[2-[2,5-dihexyl-4-[2-[(2R,3S,4R,5S,6R)-3,4,5-trihydroxy-6-(hydroxymethyl)tetrahydropyran-2-yl]ethynyl]phenyl]ethynyl]-6-(hydroxymethyl)tetrahydropyran-3,4,5-triol] gave an IC50 of 18 nM. In the case of `CC(C)Oc1cc(C#C[C@H]2O[C@H](CO)[C@@H](O)[C@H](O)[C@@H]2O)ccc1C#C[C@H]1O[C@H](CO)[C@@H](O)[C@H](O)[C@@H]1O` [Compound 83, (2R,3S,4R,5S,6R)-2-(hydroxymethyl)-6-[2-[3-isopropoxy-4-[2-[(2R,3S,4R,5S,6R)-3,4,5-trihydroxy-6-(hydroxymethyl)tetrahydropyran-2-yl]ethynyl]phenyl]ethynyl]tetrahydropyran-3,4,5-triol], the IC50 is reported as 3.8 nM.
